Reference: patent US6277847A, “Herbicidal isoindolinonyl-and 3,4-dihydroisoquinolonyl-substituted heterocycles” (FMC Corporation, priority 2000, dated 2001)

How the values were obtained:
Type in all cases: in vivo
[1] = system: Johnsongrass (Sorghum halepense); assay: post-emergence herbicidal activity, johnsongrass; settings: 1 Kg/Ha, about fourteen days, read-out: post-emergence herbicidal activity (% control) SORHA
How it was run: (§1)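 Percent control (0–100) was rated about fourteen days after spraying of emerged, germinated plants in flats with compound dissolved in water/acetone at 1 Kg/Ha.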

[2] = system: common cocklebur (Xanthium strumarium L.); assay: pre-emergence herbicidal activity, cocklebur; settings: 1 kg/Ha, about fourteen days, read-out: pre-emergence herbicidal activity (% control) XANPE
How it was run: (§2)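 Seeds sown in flats of soil mix were sprayed pre-emergence with test compound in water/acetone at 1 kg/Ha. Flats were held about fourteen days beside untreated controls, then phytotoxicity was scored as percent control (0 = no effect, 100 = complete control).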

[3] = system: field corn (Zea mays var. Pioneer 3732); assay: pre-emergence herbicidal activity, corn; settings: 1 kg/Ha, about fourteen days, read-out: pre-emergence herbicidal activity (% control) CRN
How it was run: as §2

[4] = system: blackgrass (Aloepecurus myosuroides); assay: post-emergence herbicidal activity, blackgrass; settings: Alopecurus myosuroides, 1 Kg/Ha, about fourteen days, read-out: post-emergence herbicidal activity (% control) ALOMY
Method: This example sets forth the methods of herbicidal testing conducted on the specific compounds set forth below. Specifically, the compounds referenced below were tested for pre- and post-emergence herbicidal activity using a variety of crops and weeds. The test plants include, but are not limited to, soybean (Glycine max -- var. Winchester), field corn (Zea mays var. Pioneer 3732), wheat (Triticum aestivum var. Lew), morningglory (Ipomea lacunosa or Ipomea hederacea), velvetleaf (Abutilon theophrasti), green foxtail (Setaria viridis), Johnsongrass (Sorghum halepense), blackgrass (Aloepecurus myosuroides), common chickweed (Stellaria media), and common cocklebur (Xanthium strumarium L.).
In the post-emergence test, seeds of the plant species named above were planted in flats containing the appropriate soil mixture where they were maintained to allow the seeds to germinate. When the plants in these flats reached the proper stage of growth, flats for the pre-emergence tests were planted in a like manner. The flats containing the post-emergence and pre-emergence test plant species were then sprayed with an appropriately concentrated water/acetone solution of test compound. Once treated the flats were maintained, along with untreated controls, for about fourteen days. All treated plants were then examined for phytotoxicity, which was expressed as percent control where 0 is no effect and 100 is complete control. Effective rates of application for the compounds of the present invention range from 0.001 to 3 kg/ha, more likely from […] to 1 Kg/ha.
Herbicidal activity data at selected application rates are in Tables 4 and 5. The test compounds are identified by numbers correspond to those in Table 1.
SOY is soybean, WHT is wheat, CRN is corn, ABUTH is velvetleaf, IPOSS is
morningglory, STEME is chickweed, XANPE is cocklebur, ALOMY is blackgrass,
Rate of application of test compound is 1 Kg/Ha. The definitions as shown under Table 4 apply to Table 5.

[5] = system: soybean (Glycine max -- var. Winchester); assay: pre-emergence herbicidal activity, soybean; settings: 1 kg/Ha, about fourteen days, read-out: pre-emergence herbicidal activity (% control) SOY
How it was run: as §2

[6] = system: velvetleaf (Abutilon theophrasti); assay: pre-emergence herbicidal activity, velvetleaf; settings: 1 kg/Ha, about fourteen days, read-out: pre-emergence herbicidal activity (% control) ABUTH
How it was run: as §2

[7] = system: velvetleaf (Abutilon theophrasti); assay: post-emergence herbicidal activity, velvetleaf; settings: 1 Kg/Ha, about fourteen days, read-out: post-emergence herbicidal activity (% control) ABUTH
How it was run: as §1

[8] = system: wheat (Triticum aestivum var. Lew); assay: pre-emergence herbicidal activity, wheat; settings: 1 kg/Ha, about fourteen days, read-out: pre-emergence herbicidal activity (% control) WHT
How it was run: as §2

[9] = system: morningglory (Ipomea lacunosa or Ipomea hederacea); assay: pre-emergence herbicidal activity, morningglory; settings: Ipomoea, 1 kg/Ha, about fourteen days, read-out: pre-emergence herbicidal activity (% control) IPOSS
How it was run: as §2

[10] = system: green foxtail (Setaria viridis); assay: post-emergence herbicidal activity, green foxtail; settings: 1 Kg/Ha, about fourteen days, read-out: post-emergence herbicidal activity (% control) SETVI
How it was run: as §1

[11] = system: wheat (Triticum aestivum var. Lew); assay: post-emergence herbicidal activity, wheat; settings: 1 Kg/Ha, about fourteen days, read-out: post-emergence herbicidal activity (% control) WHT
How it was run: as §1

[12] = system: common chickweed (Stellaria media); assay: pre-emergence herbicidal activity, chickweed; settings: 1 kg/Ha, about fourteen days, read-out: pre-emergence herbicidal activity (% control) STEME
How it was run: as §2

[13] = system: morningglory (Ipomea lacunosa or Ipomea hederacea); assay: post-emergence herbicidal activity, morningglory; settings: Ipomoea, 1 Kg/Ha, about fourteen days, read-out: post-emergence herbicidal activity (% control) IPOSS
How it was run: as §1

[14] = system: green foxtail (Setaria viridis); assay: pre-emergence herbicidal activity, green foxtail; settings: 1 kg/Ha, about fourteen days, read-out: pre-emergence herbicidal activity (% control) SETVI
How it was run: as §2

[15] = system: soybean (Glycine max -- var. Winchester); assay: post-emergence herbicidal activity, soybean; settings: 1 Kg/Ha, about fourteen days, read-out: post-emergence herbicidal activity (% control) SOY
How it was run: as §1

[16] = system: field corn (Zea mays var. Pioneer 3732); assay: post-emergence herbicidal activity, corn; settings: 1 Kg/Ha, about fourteen days, read-out: post-emergence herbicidal activity (% control) CRN
How it was run: as §1

[17] = system: common chickweed (Stellaria media); assay: post-emergence herbicidal activity, chickweed; settings: 1 Kg/Ha, about fourteen days, read-out: post-emergence herbicidal activity (% control) STEME
How it was run: as §1

[18] = system: common cocklebur (Xanthium strumarium L.); assay: post-emergence herbicidal activity, cocklebur; settings: 1 Kg/Ha, about fourteen days, read-out: post-emergence herbicidal activity (% control) XANPE
How it was run: as §1

[19] = system: blackgrass (Aloepecurus myosuroides); assay: pre-emergence herbicidal activity, blackgrass; settings: Alopecurus myosuroides, 1 kg/Ha, about fourteen days, read-out: pre-emergence herbicidal activity (% control) ALOMY
How it was run: as §2

COCCN1Cc2c(-n3c(=O)cc(C(F)(F)F)n(C)c3=O)ccc(Cl)c2C1=O [Compound 23]
activity at 1000 g/ha [1]: 100% | activity at 1000 g/ha [2]: 100% | activity at 1000 g/ha [3]: 100% | activity at 1000 g/ha [4]: 100% | activity at 1000 g/ha [5]: 100% | activity at 1000 g/ha [6]: 100% | activity at 1000 g/ha [7]: 100% | activity at 1000 g/ha [8]: 100% | activity at 1000 g/ha [9]: 100% | activity at 1000 g/ha [10]: 100% | activity at 1000 g/ha [11]: 100% | activity at 1000 g/ha [12]: 100% | activity at 1000 g/ha [13]: 100% | activity at 1000 g/ha [14]: 100% | activity at 1000 g/ha [15]: 100% | activity at 1000 g/ha [16]: 80% | activity at 1000 g/ha [17]: 100% | activity at 1000 g/ha [18]: 100%

Cn1c(C(F)(F)F)cc(=O)n(-c2ccc(Cl)c3c2CN(Cc2ccc(Cl)cc2)C3=O)c1=O [Compound 24]
activity at 1000 g/ha [1]: 40% | activity at 1000 g/ha [2]: 10% | activity at 1000 g/ha [3]: 50% | activity at 1000 g/ha [4]: 70% | activity at 1000 g/ha [5]: 10% | activity at 1000 g/ha [6]: 100% | activity at 1000 g/ha [7]: 100% | activity at 1000 g/ha [8]: 30% | activity at 1000 g/ha [9]: 30% | activity at 1000 g/ha [10]: 70% | activity at 1000 g/ha [11]: 30% | activity at 1000 g/ha [12]: 70% | activity at 1000 g/ha [13]: 30% | activity at 1000 g/ha [14]: 95% | activity at 1000 g/ha [15]: 60% | activity at 1000 g/ha [16]: 70% | activity at 1000 g/ha [17]: 100% | activity at 1000 g/ha [18]: 80%

CC(C)N1Cc2c(c(Cl)cc(Cl)c2N2C(=O)C3=C(CCCC3)C2=O)C1=O [Compound 82, 1-[5,7-dichloro-2-(1-methylethyl)isoindolin-1-on-4-yl]-3,4,5,6-tetrahydrophthalimide]
activity at 1000 g/ha [2]: 95% | activity at 1000 g/ha [3]: 80% | activity at 1000 g/ha [4]: 100% | activity at 1000 g/ha [5]: 70% | activity at 1000 g/ha [6]: 100% | activity at 1000 g/ha [7]: 100% | activity at 1000 g/ha [8]: 60% | activity at 1000 g/ha [9]: 100% | activity at 1000 g/ha [10]: 100% | activity at 1000 g/ha [11]: 40% | activity at 1000 g/ha [12]: 100% | activity at 1000 g/ha [13]: 95% | activity at 1000 g/ha [14]: 100% | activity at 1000 g/ha [15]: 60% | activity at 1000 g/ha [16]: 65% | activity at 1000 g/ha [17]: 85% | activity at 1000 g/ha [18]: 100% | activity at 1000 g/ha [19]: 70%

CC(C)N1Cc2c(-n3nc4n(c3=O)CCCC4)ccc(Cl)c2C1=O [Compound 83, 2-[7-chloro-2-(1-methylethyl)isoindolin-1-on-4-yl]-5,6,7,8-tetrahydro-1,2,4-triazolo[4,3-A]pyridin-3(2H)-one]
activity at 1000 g/ha [2]: 30% | activity at 1000 g/ha [3]: 0% | activity at 1000 g/ha [4]: 50% | activity at 1000 g/ha [5]: 5% | activity at 1000 g/ha [6]: 100% | activity at 1000 g/ha [7]: 100% | activity at 1000 g/ha [8]: 10% | activity at 1000 g/ha [9]: 60% | activity at 1000 g/ha [10]: 60% | activity at 1000 g/ha [11]: 30% | activity at 1000 g/ha [12]: 100% | activity at 1000 g/ha [13]: 90% | activity at 1000 g/ha [14]: 60% | activity at 1000 g/ha [15]: 80% | activity at 1000 g/ha [16]: 60% | activity at 1000 g/ha [17]: 80% | activity at 1000 g/ha [18]: 60% | activity at 1000 g/ha [19]: 50%
